The values below come from patent EP3636781A1, “NOVEL SCREENING ASSAYS FOR IDENTIFYING COMPOUNDS RESERSING HIV-1 LATENCY” (Heinrich-Pette-Institut Leibniz-Institut für Experimentelle …, priority 2018, dated 2020).

A word on the EC50: it is the concentration needed to bring the measured effect to its halfway point.

One data set deals with J89. The data set is described as follows: SM111 treatment of latent J89 cells, latency reversal as HIV-1-GFP+ cells. It counts as cell-based. The settings on record: 100 µM, several consecutive passages, HIV-1-GFP+ cells by flow cytometry (Figure 7A). As for the experimental part: All results were depicted as medians ± IQR. […].
For SM111 treatment, the HIV-1 latent Jurkat cell line, J89, was treated with SM111 compound, a Vpu-inhibitor, SM113, a negative compound, and DMSO for several consecutive passages. 1x10^6 cells were plated and treated with 100 µM of all compounds for 4 days. Then, one fourth (25%) of the cells were passaged into new media containing the respective treatment and the rest were used to measure HIV-1 latency reactivation (GFP) and cell viability. An untreated control well was kept as internal negative control.
(A flow cytometer gives signals particle by particle.)

In data set [1] the test system is J89Δvpu cells. The conditions noted are these: 96 hrs, proportion of Zombie NIR-/activated Caspase 3- cells against concentration.
Description: (§1) Latency reactivation was traced by quantifying the proportion of HIV-1-GFP+ cells. […] The treatment of J89Δvpu cells with increasing concentrations of sulfasalazine was measured at 96 hrs. Cells shown are gated on viable cells (Zombie NIR- gate) and on negative activated caspase 3 to exclude any apoptotic or dead cell. […] (B) NF-κB inhibitor, sulfasalazine, was added at several concentrations to the J89Cas9AVpu cell line and the proportion of GFP- cells (latent) was measured by flow cytometry at 96 hrs. (gating strategy: (A): FSC/SSC → Zombie NIR- → HIV-1-GFP. (B) FSC/SSC → Zombie NIR negative → Caspase 3 active negative → HIV-1-GFP).
Data set [2] concerns J89Δvpu cells. The data set is described as follows: cells. The settings on record: 96 h, read-out: EC50 for HIV-1 latency re-establishment.
Description: as §1
A further data set has as its target NF-κB (human) (UniProt Q04206). In words: cell-based or functional assay.

Sequence of NF-κB (human) (Q04206 whole entry): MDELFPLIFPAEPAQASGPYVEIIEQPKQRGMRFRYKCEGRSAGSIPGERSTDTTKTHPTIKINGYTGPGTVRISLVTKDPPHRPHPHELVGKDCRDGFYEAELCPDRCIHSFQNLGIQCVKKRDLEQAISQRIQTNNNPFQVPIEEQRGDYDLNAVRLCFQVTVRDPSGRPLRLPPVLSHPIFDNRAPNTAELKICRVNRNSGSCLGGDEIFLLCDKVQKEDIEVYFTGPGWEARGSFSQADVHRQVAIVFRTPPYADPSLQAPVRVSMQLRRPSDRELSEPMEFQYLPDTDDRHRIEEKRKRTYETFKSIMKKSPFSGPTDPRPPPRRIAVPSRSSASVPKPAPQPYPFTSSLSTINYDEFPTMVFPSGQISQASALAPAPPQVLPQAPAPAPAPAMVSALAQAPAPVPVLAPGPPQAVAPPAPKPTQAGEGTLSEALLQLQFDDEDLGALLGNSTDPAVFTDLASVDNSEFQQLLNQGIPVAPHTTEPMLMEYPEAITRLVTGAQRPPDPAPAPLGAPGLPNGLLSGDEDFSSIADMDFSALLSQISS

Consider `N=C(N)NC(=O)c1cccnc1N1CCCCCC1` [SM111, 1-(2-(azepan-1-yl)nicotinoyl)guanidine], for which the “reversal of HIV-1 latency” value with J89 was “able to reverse HIV-1 latency”. For `O=C(O)c1cc(/N=N/c2ccc(S(=O)(=O)Nc3ccccn3)cc2)ccc1O` [sulfasalazine], in the data set with J89Δvpu cells [1], the LD50 is reported as greater than 0.50 mM. The EC50 with J89Δvpu cells [2] is 400 µM.

Regarding HIV-1 89.6 Vpu R45K mutant, the activation of NF-κB in a dual luciferase reporter assay (HEK293T, constitutively active IKKβ, increasing amounts of Vpu expression plasmid), EC50 with NF-κB (human) was greater than 38 ng. Same read-out and setting: to “HIV-1 Vpu protein (strain 89.6), wild type” belongs 5.2 ng.
